Source: paper PMC3621900 (Nature Communications, 2013)

System: nicotinic acetylcholine receptor (nAChR)
Experiment: whole-cell patch clamp
Parameters: species or system Apis mellifera

O=[N+]([O-])NC1=NCCN1Cc1ccc(Cl)nc1 [imidacloprid]
IC50: 295 nM
